From patent US10035778B2, “Meta-azacyclic amino benzoic acid derivatives as pan integrin antagonists” (Saint Louis University, priority 2015, dated 2018)

Tests used:
Type in all cases: in vivo
[1] = IV cassette pharmacokinetic study in male Sprague-Dawley rats (Saint Louis University); conditions: plasma; male Sprague-Dawley rat, 1 mg/kg IV cassette, sampling to 24 h; read-out: plasma t½ after 1 mg/kg IV bolus dose in rat (converted)
Procedure: (§1) A minimally sufficient volume of dimethylsulfoxide (DMSO) was added to each test compound to achieve solubilization. For intravenous (IV) delivery, compounds were then formulated as solutions in glycerol formal: saline (either 20:80 or 40:60 v/v) (Sigma Chemicals, St. Louis). For oral (PO) administration, compounds were formulated with 0.5% methylcellulose. Five to six compound solutions were combined into a singled mixed solution for IV and PO cassette administration with final DMSO concentrations <0.6% or <1.2%, for the IV and PO cassettes, respectively. Analytes were detected in test samples using an LC/MS/MS (liquid chromatography/mass spectrometry) system consisting of an LC-20AD pump (Shimadzu, Kyoto, Japan), an HTC PAL autosampler (Leap technologies, Carrboro, N.C.), and a Sciex API-4000 mass spectrometer in ESI mode (AB Sciex, Foster City, Calif.). An Amour C18 reverse phase column (Analytical Sales and Services, Pompton Plains, N.J.) was used for chromatographic separation.
(§2) Pharmacokinetic (PK) studies conducted at Saint Louis University used male Sprague-Dawley rats with an initial body weight of 200 to 220 g. IV PK studies were performed with the following compounds: Examples 1-3 and 5-17 and comparison compounds C12-C18, C29, and C30. Animals were allowed free access to food and water. Rats were individually housed and connected to jugular vein catheters. Each cassette formulation was administered intravenously to two rats (1 mL/kg body weight). Each cassette formulation contained 5-6 compounds at 1 mg/kg in either 20:80 or 40/60 glycerol formal/saline (v/v). Blood was collected manually via the catheter into lithium-heparin tubes at 0.017, 0.083, 0.5, 1, 2, 4, 6 and 24 hours post-dose. Animals were euthanized with CO2 at the end of the experiment.
(§3) Internal standard was added to all samples at 200 ng/mL (final), as well as 150 μL of acetonitrile. Plasma samples (50 μL total volume) were diluted with control nave rat plasma as appropriate to bring the sample measurement into the linear dynamic range of the standard curve. The samples were capped and mixed on a multi-plate vortexer for 5 minutes and centrifuged for 5 minutes at 3200 rmp. The supernant was transferred to 96-well sample plate and capped for LC/MS/MS analysis. Compounds were optimized and monitored for their respective MRM transitions. The mobile phases consisted of 0.1% formic acid (aqueous) and 100% acetonitrile (organic) with an Amour C18 reverse phase column (2.1×30 mm, 5 micron) at a flow rate of 0.35 mL/min. The starting phase was 10% acetonitrile for the 0.9 minutes then increased to 90% acetonitrile over 0.4 minutes, and was maintained for an additional 0.2 minutes before returning to 10% acetonitrile over 0.4 minutes. The 10% acetonitrile was held for an additional 1.6 minutes. Peak areas were integrated using Analyst 1.5.1 (AB Sciex, Foster City, Calif.).

[2] = Oral (PO) cassette pharmacokinetic study in male Sprague-Dawley rats; conditions: plasma; male Sprague-Dawley rat, 2 mg/kg oral gavage cassette in 0.5% methylcellulose; read-out: AUC (0-inf) after a 2 mg/kg PO dose in rat
Procedure: as §1, §2
Oral PK studies were conducted with the following compounds: Examples 1-3 and 5-17 and comparison compounds C12, C14-16 and C29-30. The PO cassette formulations were administered via oral gavage to two rats (10 mL/kg body weight) containing 5-6 compounds per cassette. The oral dose was administered at 2 mg/kg/compound in 0.5% methylcellulose. Blood collection time points were 0.25, 0.5, 1, 2, 4, 6 and 24 hours post-dose into lithium-heparin tubes. Animals were euthanized with CO2 at the end of the experiment.
as §3

[3] = IV cassette pharmacokinetic study in female Sprague-Dawley rats (PRESCOS, LLC); conditions: plasma; female Sprague-Dawley rat, 1 mg/kg IV cassette, sampling to 8 h (PRESCOS); read-out: plasma t½ after 1 mg/kg iv bolus dose in rat (converted)
Procedure: Similar rat PK studies were conducted by PRESCOS, LLC (San Diego, Calif.) for comparison compounds C19-C28. Female Sprague-Dawley rats with an initial body weight of 195 to 220 g were used. Cassette formulations with 1 mg/kg/compound in 40/60 glycerol formal/saline were administered intravenously to three rats. The dosing volume for each animal was 5 mL/kg body weight. Blood samples were collected via a jugular vein catheter at 0.017, 0.25, 0.5, 1, 2, 4 and 8 hours post-dose into K2EDTA tubes. Animals were euthanized with CO2 at the end of the experiment. Sample processing and compound measurement by LC/MS/MS was performed by HT Laboratories (San Diego, Calif.).

SMILES	half-life [1] [min]	AUC(0-inf) [2] [ng·h/mL]	half-life [3] [min]
CC(C)(C)c1cc(Br)cc([C@H](CC(=O)O)NC(=O)CNC(=O)c2cc(O)cc(NC3=NCC(O)CN3)c2)c1 (stereo partly shown) [Example C12, reference compound]	30	205	
CC(C)(C)c1cc(Br)c(O)c([C@H](CC(=O)O)NC(=O)CNC(=O)c2cc(O)cc(NC3=NCC(O)CN3)c2)c1 (stereo partly shown) [Example C13, reference compound]	66		
CC(C)(C)c1cc(Br)cc([C@H](CC(=O)O)NC(=O)CNC(=O)c2cc(O)cc(NC3=NCC(O)CN3)c2)c1O (stereo partly shown) [Example C14, reference compound]	60	224	
CC(C)(O)c1cc(Br)cc([C@H](CC(=O)O)NC(=O)CNC(=O)c2cc(O)cc(NC3=NCC(O)CN3)c2)c1 (stereo partly shown) [Example C15, reference compound]	36	87	
CC(C)(O)c1cc(Cl)cc([C@H](CC(=O)O)NC(=O)CNC(=O)c2cc(O)cc(NC3=NCC(O)CN3)c2)c1 (stereo partly shown) [Example C16, reference compound]	96	62	
CC(C)(C)c1cc(Br)cc([C@H](CC(=O)O)NC(=O)CNC(=O)c2cccc(NC(=N)N)c2)c1 [Example C17, reference compound]	48		
CC(C)(C)c1cc(Br)cc([C@H](CC(=O)O)NC(=O)CNC(=O)c2cccc(NC3=NCCN3)c2)c1 [Example C18, reference compound]	72		
CC(C)(C#N)c1cc(Br)cc([C@H](CC(=O)O)NC(=O)CNC(=O)c2cc(O)cc(NC3=NCC(O)CN3)c2)c1 (stereo partly shown) [Example C19]			25.8
CC(C)(C)c1cc(C#N)cc([C@H](CC(=O)O)NC(=O)CNC(=O)c2cc(O)cc(NC3=NCC(O)CN3)c2)c1 (stereo partly shown) [Example C20]			22.8
CC(C)(O)c1cc([C@H](CC(=O)O)NC(=O)CNC(=O)c2cc(O)cc(NC3=NCC(O)CN3)c2)cc(C(F)(F)F)c1 (stereo partly shown) [Example C21]			90
O=C(O)C[C@H](NC(=O)CNC(=O)c1cc(O)cc(NC2=NCC(O)CN2)c1)c1cc(Cl)cc(C2(CF)CCOCC2)c1 (stereo partly shown) [Example C22]			18
CC(C)(c1cc(Cl)cc([C@H](CC(=O)O)NC(=O)CNC(=O)c2cc(O)cc(NC3=NCC(O)CN3)c2)c1)C(F)(F)F (stereo partly shown) [Example C23]			12.6
CC(O)(c1cc(Cl)cc([C@H](CC(=O)O)NC(=O)CNC(=O)c2cc(O)cc(NC3=NCC(O)CN3)c2)c1)C(F)(F)F (stereo partly shown) [Example C24]			16.8
N#CC1(c2cc(Cl)cc([C@H](CC(=O)O)NC(=O)CNC(=O)c3cc(O)cc(NC4=NCC(O)CN4)c3)c2)CCC1 (stereo partly shown) [Example C25]			13.8
N#CC1(c2cc(Cl)cc([C@H](CC(=O)O)NC(=O)CNC(=O)c3cc(O)cc(NC4=NCC(O)CN4)c3)c2)CCOCC1 (stereo partly shown) [Example C26]			15
CC(O)(c1cc([C@H](CC(=O)O)NC(=O)CNC(=O)c2cc(O)cc(NC3=NCC(O)CN3)c2)cc(C(F)(F)F)c1)C(F)(F)F (stereo partly shown) [Example C27]			12.6
O=C(O)C[C@H](NC(=O)CNC(=O)c1cc(O)cc(NC2=NCC(O)CN2)c1)c1cc(Br)cc(C2(C(F)F)CC2)c1 (stereo partly shown) [Example C28]			18
O=C(O)C[C@H](NC(=O)CNC(=O)c1cc(O)cc(NC2=NCC(O)CN2)c1)c1ccccc1 (stereo partly shown) [Example C29, reference compound]	< 4.8	< 1	
NC(=O)c1cc(Cl)cc([C@H](CC(=O)O)NC(=O)CNC(=O)c2cc(O)cc(NC3=NCC(O)CN3)c2)c1 (stereo partly shown) [Example C30, reference compound]	96	< 1	
